The values that follow come from ChEMBL document CHEMBL3045504, “Activity of 1,4-benzoquinones against formosan subterranean termites (Coptotermes formosanus)” (2008).

For the first experiment, the system named is Coptotermes formosanus. Description: Antifeedant activity against Coptotermes formosanus placed on 1 % wt/wt compound treated filter paper assessed as filter paper consumption measured 21 days post compound exposure (reference value: 85 +/- 15.1 mg). The experiment is classed as functional.
For `COC1=C(OC)C(=O)C(C/C=C(\C)CC/C=C(\C)CC/C=C(\C)CC/C=C(\C)CC/C=C(\C)CCC=C(C)C)=C(C)C1=O` [Coenzyme Q6], the Activity was found to be 97.3 mg.

`COC1=C(OC)C(=O)C(C/C=C(\C)CC/C=C(\C)CC/C=C(\C)CC/C=C(\C)CC/C=C(\C)CC/C=C(\C)CC/C=C(\C)CC/C=C(\C)CCC=C(C)C)=C(C)C1=O` [Coenzyme Q9]: the Activity was determined as 63.9 mg.

In the case of `COC1=CC(=O)C(C)=CC1=O` [Coprinin], the Activity was found to be 4.2 mg.

On to `CC1=CC(=O)C=CC1=O` [Cresoquinone], for which the Activity was found to be 22.5 mg.

Consider `CCCCCCCCCCCC1=C(O)C(=O)C=C(O)C1=O` [EMBELIN], for which the Activity worked out at 10.7 mg.

For the compound `COC1=C(OC)C(=O)C(C/C=C(\C)CC/C=C(\C)CC/C=C(\C)CC/C=C(\C)CC/C=C(\C)CC/C=C(\C)CC/C=C(\C)CC/C=C(\C)CC/C=C(\C)CCC=C(C)C)=C(C)C1=O` [UBIDECARENONE], the Activity worked out at 49.6 mg.

A further experiment concerns Coptotermes formosanus. Description: Termiticidal activity against Coptotermes formosanus placed on 1 % wt/wt compound treated filter paper assessed as termite mortality measured 21 days post compound exposure. The experiment is classed as functional.
In general, mortality refers to the percentage killed. `CNC1=C(Cl)C(=O)C(NC)=C(Cl)C1=O`: the mortality is listed as 100%.

As for `COC1=C(Cl)C(=O)C(Cl)=C(OC)C1=O`, the mortality is recorded as 2.5%.

Regarding `COc1cccc(NC2=C(Cl)C(=O)C(Nc3cccc(OC)c3)=C(Cl)C2=O)c1`, the mortality is given as 33.8%.

As for `O=C1C(Cl)=C(Nc2cccc([N+](=O)[O-])c2)C(=O)C(Cl)=C1Nc1cccc([N+](=O)[O-])c1`, the mortality came out at 90%.

With `Cc1ccc(NC2=C(Cl)C(=O)C(Nc3ccc(C)cc3)=C(Cl)C2=O)cc1`, the mortality is recorded as 88.8%.

For `COc1ccc(NC2=C(Cl)C(=O)C(Nc3ccc(OC)cc3)=C(Cl)C2=O)cc1`, the mortality was determined as 57.5%.

Regarding `COc1ccccc1NC1=C(Cl)C(=O)C(Nc2ccccc2OC)=C(Cl)C1=O`, the mortality was determined as 2.5%.

As to `O=C1C(Cl)=C(Nc2ccc(Cl)cc2)C(=O)C(Cl)=C1Nc1ccc(Cl)cc1`, the mortality came out at 86.3%.

Turning to `O=C1C(Cl)=C(Nc2ccccc2)C(=O)C(Cl)=C1Nc1ccccc1`, the mortality is listed as 60%.

On to `COC1=C(OC)C(=O)C(C/C=C(\C)CC/C=C(\C)CC/C=C(\C)CC/C=C(\C)CC/C=C(\C)CCC=C(C)C)=C(C)C1=O` [Coenzyme Q6], for which the mortality was 18.3%.

Regarding `COC1=C(OC)C(=O)C(C/C=C(\C)CC/C=C(\C)CC/C=C(\C)CC/C=C(\C)CC/C=C(\C)CC/C=C(\C)CC/C=C(\C)CC/C=C(\C)CCC=C(C)C)=C(C)C1=O` [Coenzyme Q9], the mortality is recorded as 15%.

In the case of `COC1=CC(=O)C(C)=CC1=O` [Coprinin], the mortality was found to be 93.3%.

Consider `CC1=CC(=O)C=CC1=O` [Cresoquinone], for which the mortality amounted to 20%.

Consider `CCCCCCCCCCCC1=C(O)C(=O)C=C(O)C1=O` [EMBELIN], for which the mortality amounted to 46.7%.

Regarding `CCCCCCCCCCCCCC1=C(O)C(=O)C=C(O)C1=O` [Rapanone], the mortality worked out at 81.7%.

For `COC1=C(OC)C(=O)C(C/C=C(\C)CC/C=C(\C)CC/C=C(\C)CC/C=C(\C)CC/C=C(\C)CC/C=C(\C)CC/C=C(\C)CC/C=C(\C)CC/C=C(\C)CCC=C(C)C)=C(C)C1=O` [UBIDECARENONE], the mortality came out at 10%.

For the next experiment, the system named is Coptotermes formosanus. The experiment can be described thus: Termiticidal activity against Coptotermes formosanus placed on 1 % wt/wt compound treated filter paper assessed as termite mortality measured 3 days post compound exposure. Type of experiment: functional.
In the case of `CNC1=C(Cl)C(=O)C(NC)=C(Cl)C1=O`, the mortality is reported as 8.8%.

Consider `COC1=C(Cl)C(=O)C(Cl)=C(OC)C1=O`, for which the mortality is reported as 0%.

With `COc1cccc(NC2=C(Cl)C(=O)C(Nc3cccc(OC)c3)=C(Cl)C2=O)c1`, the mortality came to 0%.

For the compound `O=C1C(Cl)=C(Nc2cccc([N+](=O)[O-])c2)C(=O)C(Cl)=C1Nc1cccc([N+](=O)[O-])c1`, the mortality amounted to 0%.

With `Cc1ccc(NC2=C(Cl)C(=O)C(Nc3ccc(C)cc3)=C(Cl)C2=O)cc1`, the mortality turned out to be 6.3%.

On to `COc1ccc(NC2=C(Cl)C(=O)C(Nc3ccc(OC)cc3)=C(Cl)C2=O)cc1`, for which the mortality is on record as 1.3%.

For `COc1ccccc1NC1=C(Cl)C(=O)C(Nc2ccccc2OC)=C(Cl)C1=O`, the mortality is recorded as 1.3%.

In the case of `O=C1C(Cl)=C(Nc2ccc(Cl)cc2)C(=O)C(Cl)=C1Nc1ccc(Cl)cc1`, the mortality came to 10%.

In the case of `O=C1C(Cl)=C(Nc2ccccc2)C(=O)C(Cl)=C1Nc1ccccc1`, the mortality came to 0%.

Turning to `COC1=C(OC)C(=O)C(C/C=C(\C)CC/C=C(\C)CC/C=C(\C)CC/C=C(\C)CC/C=C(\C)CCC=C(C)C)=C(C)C1=O` [Coenzyme Q6], the mortality is listed as 1.7%.

For the compound `COC1=C(OC)C(=O)C(C/C=C(\C)CC/C=C(\C)CC/C=C(\C)CC/C=C(\C)CC/C=C(\C)CC/C=C(\C)CC/C=C(\C)CC/C=C(\C)CCC=C(C)C)=C(C)C1=O` [Coenzyme Q9], the mortality is reported as 15%.

Take `COC1=CC(=O)C(C)=CC1=O` [Coprinin]: the mortality was determined as 18.3%.

Consider `CC1=CC(=O)C=CC1=O` [Cresoquinone], for which the mortality turned out to be 1.7%.

With `CCCCCCCCCCCC1=C(O)C(=O)C=C(O)C1=O` [EMBELIN], the mortality is reported as 3.3%.

For the compound `CCCCCCCCCCCCCC1=C(O)C(=O)C=C(O)C1=O` [Rapanone], the mortality was found to be 5%.

Consider `COC1=C(OC)C(=O)C(C/C=C(\C)CC/C=C(\C)CC/C=C(\C)CC/C=C(\C)CC/C=C(\C)CC/C=C(\C)CC/C=C(\C)CC/C=C(\C)CC/C=C(\C)CCC=C(C)C)=C(C)C1=O` [UBIDECARENONE], for which the mortality is given as 0%.

The test system of the next experiment is Coptotermes formosanus. Description: Antifeedant activity against Coptotermes formosanus placed on 1 % wt/wt compound treated filter paper assessed as filter paper consumption measured 21 days post compound exposure (reference value: 44 +/- 1.1 mg). Type of experiment: functional.
`CNC1=C(Cl)C(=O)C(NC)=C(Cl)C1=O`: the Activity amounted to 7.8 mg.

With `COC1=C(Cl)C(=O)C(Cl)=C(OC)C1=O`, the Activity is given as 37.8 mg.

As for `COc1cccc(NC2=C(Cl)C(=O)C(Nc3cccc(OC)c3)=C(Cl)C2=O)c1`, the Activity turned out to be 34.9 mg.

For `O=C1C(Cl)=C(Nc2cccc([N+](=O)[O-])c2)C(=O)C(Cl)=C1Nc1cccc([N+](=O)[O-])c1`, the Activity is 18.3 mg.

With `Cc1ccc(NC2=C(Cl)C(=O)C(Nc3ccc(C)cc3)=C(Cl)C2=O)cc1`, the Activity was found to be 19.1 mg.

With `COc1ccc(NC2=C(Cl)C(=O)C(Nc3ccc(OC)cc3)=C(Cl)C2=O)cc1`, the Activity is reported as 39.8 mg.

With `COc1ccccc1NC1=C(Cl)C(=O)C(Nc2ccccc2OC)=C(Cl)C1=O`, the Activity was determined as 40.1 mg.

Take `O=C1C(Cl)=C(Nc2ccc(Cl)cc2)C(=O)C(Cl)=C1Nc1ccc(Cl)cc1`: the Activity came to 22.7 mg.

Take `O=C1C(Cl)=C(Nc2ccccc2)C(=O)C(Cl)=C1Nc1ccccc1`: the Activity was found to be 36.3 mg.

The subject of a further experiment is Coptotermes formosanus. Description: Termiticidal activity against Coptotermes formosanus placed on 1 % wt/wt compound treated filter paper assessed as termite mortality measured 11 days post compound exposure. Type of experiment: functional.
Take `CNC1=C(Cl)C(=O)C(NC)=C(Cl)C1=O`: the mortality was 90%.

On to `COC1=C(Cl)C(=O)C(Cl)=C(OC)C1=O`, for which the mortality came to 0%.

Turning to `COc1cccc(NC2=C(Cl)C(=O)C(Nc3cccc(OC)c3)=C(Cl)C2=O)c1`, the mortality was 1.3%.

On to `O=C1C(Cl)=C(Nc2cccc([N+](=O)[O-])c2)C(=O)C(Cl)=C1Nc1cccc([N+](=O)[O-])c1`, for which the mortality was found to be 75%.

Turning to `Cc1ccc(NC2=C(Cl)C(=O)C(Nc3ccc(C)cc3)=C(Cl)C2=O)cc1`, the mortality was determined as 52.5%.

With `COc1ccc(NC2=C(Cl)C(=O)C(Nc3ccc(OC)cc3)=C(Cl)C2=O)cc1`, the mortality is 3.8%.

On to `COc1ccccc1NC1=C(Cl)C(=O)C(Nc2ccccc2OC)=C(Cl)C1=O`, for which the mortality is reported as 0%.

Turning to `O=C1C(Cl)=C(Nc2ccc(Cl)cc2)C(=O)C(Cl)=C1Nc1ccc(Cl)cc1`, the mortality was found to be 62.5%.

In the case of `O=C1C(Cl)=C(Nc2ccccc2)C(=O)C(Cl)=C1Nc1ccccc1`, the mortality came out at 40%.

In the case of `COC1=C(OC)C(=O)C(C/C=C(\C)CC/C=C(\C)CC/C=C(\C)CC/C=C(\C)CC/C=C(\C)CCC=C(C)C)=C(C)C1=O` [Coenzyme Q6], the mortality came to 6.7%.

Consider `COC1=C(OC)C(=O)C(C/C=C(\C)CC/C=C(\C)CC/C=C(\C)CC/C=C(\C)CC/C=C(\C)CC/C=C(\C)CC/C=C(\C)CC/C=C(\C)CCC=C(C)C)=C(C)C1=O` [Coenzyme Q9], for which the mortality stood at 15%.

Consider `COC1=CC(=O)C(C)=CC1=O` [Coprinin], for which the mortality came to 56.7%.

`CC1=CC(=O)C=CC1=O` [Cresoquinone]: the mortality is reported as 11.7%.

`CCCCCCCCCCCC1=C(O)C(=O)C=C(O)C1=O` [EMBELIN]: the mortality stood at 18.3%.

As to `CCCCCCCCCCCCCC1=C(O)C(=O)C=C(O)C1=O` [Rapanone], the mortality amounted to 76.7%.

Turning to `COC1=C(OC)C(=O)C(C/C=C(\C)CC/C=C(\C)CC/C=C(\C)CC/C=C(\C)CC/C=C(\C)CC/C=C(\C)CC/C=C(\C)CC/C=C(\C)CC/C=C(\C)CCC=C(C)C)=C(C)C1=O` [UBIDECARENONE], the mortality is recorded as 10%.

For another experiment, the system named is Coptotermes formosanus. The experiment can be described thus: Antifeedant activity against Coptotermes formosanus placed on 1 % wt/wt compound treated filter paper assessed as filter paper consumption measured 21 days post compound exposure (reference value: 15.9 +/- 10.4 mg). Type of experiment: functional.
`CCCCCCCCCCCCCC1=C(O)C(=O)C=C(O)C1=O` [Rapanone]: the Activity is 0.3 mg.
